The numbers were not newly measured in patent publication US20230134563A1, “SUBLINGUAL CANNABINOID COMPOSITIONS” (ALVIT LCS PHARMA LTD., priority 2017, published 2023), which cites them from elsewhere.

The conditions of this data set: single component (oil or surfactant).

In the case of `CCCCCc1cc(O)c2c(c1)OC(C)(C)[C@@H]1CCC(C)=C[C@@H]21` [THC, tetrahydrocannabinol], the HLB is recorded as 0.754.
